From patent publication US20120020923A1, “Method of treating viral diseases with combinations of TPO receptor agonist and anti-viral agents” (priority 2006, published 2012)

Tested on: subjects with chronic hepatitis C virus (HCV) associated thrombocytopenia
Test: placebo controlled, double blind, dose-ranging study of Compound A before and with IFN and ribavirin
Assay type: in vivo, human
Details: for Median platelet count at Week 4: 4 weeks
Experimental: The safety, tolerability, efficacy and pharmacokinetics of repeat oral daily doses of 3′-{N′-[1-(3,4-Dimethylphenyl)-3-methyl-5-oxo-1,5-dihydropyrazol-4-ylidene]hydrazino}-2′-hydroxybiphenyl-3-carboxylic acid bis-(monoethanolamine);
(hereinafter Compound A) in subjects with chronic hepatitis C virus (HCV) associated thrombocytopenia, which precluded initiation of treatment with pegylated interferon (IFN) and ribavirin is assessed in this study.
HCV infected subjects with compensated cirrhosis and platelet counts between 20-70,000/ul were randomly allocated to 1 of 4 treatment groups (30, 50, 75 mg eltrombopag or placebo). During Part 1, Compound A was administered in tablet form once daily for 4 weeks. Subjects who achieved platelet counts of >70,000/ul at the end of Part 1 were eligible to enter Part 2, during which subjects initiated therapy with IFN and ribavirin and continued their randomized treatment for a maximum of 12 weeks. A follow-up visit was performed 4 weeks after last dose of study drug. The primary endpoint was defined as an increase in platelet count to 100,000/ul at Week 4.

[1] = range over the Compound A groups (30, 50, 75 mg)

## CC1=NN(c2ccc(C)c(C)c2)C(=O)C1=NNc1cccc(-c2cccc(C(=O)O)c2)c1O [Compound A, 3′-{N′-[1-(3,4-Dimethylphenyl)-3-methyl-5-oxo-1,5-dihydropyrazol-4-ylidene]hydrazino}-2′-hydroxybiphenyl-3-carboxylic acid bis-(monoethanolamine)]
30 mg once daily oral
  Median platelet count at Week 4: 136500 µL⁻¹
50 mg once daily oral
  Median platelet count at Week 4: 213500 µL⁻¹
75 mg once daily oral
  Median platelet count at Week 4: 209000 µL⁻¹
All treatment groups (30, 50, 75 mg)
  platelet counts at Day 28: increased platelet counts
[1]
  subjects completing 12 weeks of antiviral therapy: 36-65%
  subjects who completed 12 weeks of antiviral therapy: 5-15 subjects
